Source: publication PMC11631053, “A receptor-based assay to study the sweet and bitter tastes of sweeteners and binary sweet blends: the SWEET project” (Chemical Senses, 2024)
Where two headings read alike, the source gives them in different places.

Experiments:
TAS2R30 = target: T1, TAS2R30 (Homo sapiens, UniProt P59541); test: Calcium mobilization assay, HEK293T-Gα16gust44 cells expressing TAS2R30; details: for Response of TAS2R30: maximal concentration tested: sucralose 100 mM, neotame 30 µM, Ace-K 300 mM, RebA 4 mM, RebM 4 mM, mogroside V 5 mM, erythritol 200 mM, D-allulose 500 mM, thaumatin 100 mM
T1 sequence (P59541 1-319): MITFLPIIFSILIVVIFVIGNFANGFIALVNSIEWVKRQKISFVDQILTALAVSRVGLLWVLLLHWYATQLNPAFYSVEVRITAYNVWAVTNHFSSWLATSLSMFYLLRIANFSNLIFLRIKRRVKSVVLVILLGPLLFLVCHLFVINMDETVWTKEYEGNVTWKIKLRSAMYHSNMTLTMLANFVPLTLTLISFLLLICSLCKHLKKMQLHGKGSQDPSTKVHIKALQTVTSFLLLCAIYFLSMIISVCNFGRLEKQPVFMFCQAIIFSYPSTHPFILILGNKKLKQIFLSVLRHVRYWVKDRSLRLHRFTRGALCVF
Description: (§1) Different concentration ranges were tested depending on the injected sweet compound. […] All of the concentration-receptor combinations were measured in triplicate, and each experiment was repeated at least 3 times. The Ca^2+ change was expressed as a fractional change in fluorescent light intensity: ΔF/F = (F − F0)/F0, where F was the fluorescent light intensity at each point, and F0 was the value of fluorescent light emitted prior to stimulus application. To calculate dose–response relationships, the changes in fluorescence upon stimulus application were averaged, mock-subtracted and baseline-corrected. The resulting obtained dose–response data were adjusted by using a 4-parameter logistic equation.

TAS2R31 = target: T2, TAS2R31 (Homo sapiens, UniProt P59538); test: Calcium mobilization assay, HEK293T-Gα16gust44 cells expressing TAS2R31; details: maximal concentration tested: sucralose 100 mM, neotame 30 µM, Ace-K 300 mM, RebA 4 mM, RebM 4 mM, mogroside V 5 mM, erythritol 200 mM, D-allulose 500 mM, thaumatin 100 mM
T2 sequence (P59538 1-309): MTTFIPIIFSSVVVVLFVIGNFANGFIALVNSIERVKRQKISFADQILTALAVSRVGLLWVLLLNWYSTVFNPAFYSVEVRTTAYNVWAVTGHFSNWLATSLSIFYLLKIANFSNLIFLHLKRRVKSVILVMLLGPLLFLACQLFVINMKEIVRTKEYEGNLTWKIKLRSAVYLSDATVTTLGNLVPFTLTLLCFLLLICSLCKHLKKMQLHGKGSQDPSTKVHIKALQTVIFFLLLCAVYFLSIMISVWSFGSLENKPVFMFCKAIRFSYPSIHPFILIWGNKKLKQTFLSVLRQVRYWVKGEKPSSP
Description: as §1

TAS2R41 = target: T3, TAS2R41 (Homo sapiens, UniProt P59536); test: Calcium mobilization assay, HEK293T-Gα16gust44 cells expressing TAS2R41; details: maximal concentration tested: sucralose 100 mM, neotame 30 µM, Ace-K 300 mM, RebA 4 mM, RebM 4 mM, mogroside V 5 mM, erythritol 200 mM, D-allulose 500 mM, thaumatin 100 mM
T3 sequence (P59536 1-307): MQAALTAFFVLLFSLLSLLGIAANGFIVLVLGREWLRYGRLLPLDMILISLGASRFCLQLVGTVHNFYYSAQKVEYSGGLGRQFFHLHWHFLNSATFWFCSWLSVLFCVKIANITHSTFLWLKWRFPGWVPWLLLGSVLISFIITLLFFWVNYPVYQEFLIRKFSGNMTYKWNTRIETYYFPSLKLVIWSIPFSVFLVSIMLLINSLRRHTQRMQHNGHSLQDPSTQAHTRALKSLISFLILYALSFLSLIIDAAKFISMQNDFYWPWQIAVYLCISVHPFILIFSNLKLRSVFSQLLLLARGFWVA
Description: Different concentration ranges were tested depending on the injected sweet compound. […] All of the concentration-receptor combinations were measured in triplicate, and each experiment was repeated at least 3 times. The Ca^2+ change was expressed as a fractional change in fluorescent light intensity: ΔF/F = (F − F0)/F0, where F was the fluorescent light intensity at each point, and F0 was the value of fluorescent light emitted prior to stimulus application. To calculate dose–response relationships, the changes in fluorescence upon stimulus application were averaged, mock-subtracted and baseline-corrected. The resulting obtained dose–response data were adjusted by using a 4-parameter logistic equation. The half-maximal effective concentration (EC50) was calculated by using SigmaPlot software (Systat Software, San Jose, CA, USA) as described in supplemental Supplementary Figs. S1, S2, and S3.

TAS1R2/TAS1R3 = target: T4, TAS1R2/TAS1R3 (Homo sapiens, UniProt Q7RTX0+Q8TE23); test: Calcium mobilization assay, HEK293T-Gα16gust44 cells expressing the sweet taste receptor
T4 sequence (Q8TE23 20-839): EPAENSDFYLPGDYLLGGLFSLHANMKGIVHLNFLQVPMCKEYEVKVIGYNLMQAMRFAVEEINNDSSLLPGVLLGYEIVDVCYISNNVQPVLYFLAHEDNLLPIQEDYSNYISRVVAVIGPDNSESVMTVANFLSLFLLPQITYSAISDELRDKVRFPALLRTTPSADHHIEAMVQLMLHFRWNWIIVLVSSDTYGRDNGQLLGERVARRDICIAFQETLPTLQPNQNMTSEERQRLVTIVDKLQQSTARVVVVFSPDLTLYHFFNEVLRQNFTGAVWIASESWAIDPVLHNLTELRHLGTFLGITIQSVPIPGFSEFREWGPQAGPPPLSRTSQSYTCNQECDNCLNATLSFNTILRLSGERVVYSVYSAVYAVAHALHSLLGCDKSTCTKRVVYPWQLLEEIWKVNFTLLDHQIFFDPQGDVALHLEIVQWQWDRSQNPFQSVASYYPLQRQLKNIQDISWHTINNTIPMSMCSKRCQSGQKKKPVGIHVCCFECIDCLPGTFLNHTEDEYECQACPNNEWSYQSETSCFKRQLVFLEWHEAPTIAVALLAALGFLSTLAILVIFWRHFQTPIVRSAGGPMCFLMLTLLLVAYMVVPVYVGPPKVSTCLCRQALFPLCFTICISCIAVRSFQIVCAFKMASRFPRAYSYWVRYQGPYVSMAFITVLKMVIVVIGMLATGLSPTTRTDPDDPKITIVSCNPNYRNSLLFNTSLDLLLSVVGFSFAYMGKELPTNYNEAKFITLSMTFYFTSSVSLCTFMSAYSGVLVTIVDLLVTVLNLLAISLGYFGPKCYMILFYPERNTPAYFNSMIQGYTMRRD
T4 sequence (Q7RTX0 21-852): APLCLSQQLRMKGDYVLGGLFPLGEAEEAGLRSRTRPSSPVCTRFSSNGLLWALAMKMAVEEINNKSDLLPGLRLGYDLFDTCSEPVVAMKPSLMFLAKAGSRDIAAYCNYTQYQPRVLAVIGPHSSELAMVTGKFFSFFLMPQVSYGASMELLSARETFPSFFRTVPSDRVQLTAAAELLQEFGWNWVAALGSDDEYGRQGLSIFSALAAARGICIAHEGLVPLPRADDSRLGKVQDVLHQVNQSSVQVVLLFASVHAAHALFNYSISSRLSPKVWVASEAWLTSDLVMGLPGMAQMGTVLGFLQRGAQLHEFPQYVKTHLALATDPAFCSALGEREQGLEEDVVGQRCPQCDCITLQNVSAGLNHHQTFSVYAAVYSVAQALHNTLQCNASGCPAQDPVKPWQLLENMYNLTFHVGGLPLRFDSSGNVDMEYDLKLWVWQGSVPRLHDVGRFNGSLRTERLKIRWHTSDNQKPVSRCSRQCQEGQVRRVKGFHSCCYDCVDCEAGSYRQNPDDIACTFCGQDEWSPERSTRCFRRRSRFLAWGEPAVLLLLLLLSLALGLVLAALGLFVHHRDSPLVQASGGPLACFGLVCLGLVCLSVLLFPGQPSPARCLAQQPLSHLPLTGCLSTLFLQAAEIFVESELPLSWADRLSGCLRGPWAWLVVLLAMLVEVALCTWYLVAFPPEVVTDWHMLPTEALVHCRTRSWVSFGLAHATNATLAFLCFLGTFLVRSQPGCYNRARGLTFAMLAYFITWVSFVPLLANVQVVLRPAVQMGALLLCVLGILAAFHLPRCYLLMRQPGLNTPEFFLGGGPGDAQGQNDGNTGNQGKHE
Description: as §1

[1] = maximal signal amplitude, sweet compound alone
[2] = read-out: EC50 value, sweet compound alone
[3] = neotame in the presence of D-allulose 0 mM
[4] = RebM in the presence of mogroside V 0 µM
[5] = mogroside V in the presence of thaumatin 0 µM

Compound	Response of TAS2R30 (TAS2R30)	Response of TAS2R31 (TAS2R31)	Response of TAS2R41 (TAS2R41)	Max ΔF/F0 (TAS1R2/TAS1R3; [1])	EC50 (TAS1R2/TAS1R3; [2]) [µM]	also measured
OC[C@H]1O[C@H](O[C@]2(CCl)O[C@H](CCl)[C@@H](O)[C@@H]2O)[C@H](O)[C@@H](O)[C@H]1Cl [Sucralose, sucralose]	−	§^a	−	0.13 ± 0.01	78 ± 11	concentration at which maximal signal amplitude is reached (TAS1R2/TAS1R3): below 1 mM; Max ΔF/F0 (TAS1R2/TAS1R3; sucralose in the presence of Ace-K 0 µM): 0.13 ± 0.01; Max ΔF/F0 (TAS1R2/TAS1R3; sucralose in the presence of Ace-K 10 µM): 0.15 ± 0.01; Max ΔF/F0 (TAS1R2/TAS1R3; sucralose in the presence of Ace-K 30 µM): 0.12 ± 0.01; Max ΔF/F0 (TAS1R2/TAS1R3; sucralose in the presence of Ace-K 100 µM): 0.14 ± 0.01
COC(=O)[C@H](Cc1ccccc1)NC(=O)[C@H](CC(=O)O)NCCC(C)(C)C [Neotame]	−	−	−	0.16 ± 0.01	2.26 ± 0.23	EC50 (TAS1R2/TAS1R3; [3]): 2.37 ± 0.34 µM; Max ΔF/F0 (TAS1R2/TAS1R3; [3]): 0.16 ± 0.01; Max ΔF/F0 (TAS1R2/TAS1R3; neotame in the presence of D-allulose 3 mM): 0.17 ± 0.01; Max ΔF/F0 (TAS1R2/TAS1R3; neotame in the presence of D-allulose 10 mM): 0.21 ± 0.01; Max ΔF/F0 (TAS1R2/TAS1R3; neotame in the presence of D-allulose 30 mM): 0.17 ± 0.00; increase in sweetness potency (TAS1R2/TAS1R3; neotame with addition of D-allulose (3 to 30 mM), leftward shift of dose–response curves): approximately 2.5 fold
CC1=CC(=O)NS(=O)(=O)O1 [Ace-K, acesulfame-K]	−	#^b	−			EC50 (TAS1R2/TAS1R3): 410 ± 94 µM
thaumatin	−	−	−	0.12 ± 0.01		activation of the sweet taste receptor by the compound alone (TAS1R2/TAS1R3; concentrations less than 3 µM): unable to activate the sweet taste receptor on its own
C=C1C[C@@]23CC[C@H]4[C@@](C)(CCC[C@@]4(C)C(=O)O[C@@H]4O[C@H](CO)[C@@H](O)[C@H](O[C@@H]5O[C@H](CO)[C@@H](O)[C@H](O)[C@H]5O)[C@H]4O[C@@H]4O[C@H](CO)[C@@H](O)[C@H](O)[C@H]4O)[C@@H]2CC[C@]1(O[C@@H]1O[C@H](CO)[C@@H](O)[C@H](O[C@@H]2O[C@H](CO)[C@@H](O)[C@H](O)[C@H]2O)[C@H]1O[C@@H]1O[C@H](CO)[C@@H](O)[C@H](O)[C@H]1O)C3 [RebM, Rebaudioside M]	−	−	−	0.16 ± 0.01	34 ± 2	EC50 (TAS1R2/TAS1R3; [4]): 36 ± 2 µM; Max ΔF/F0 (TAS1R2/TAS1R3; [4]): 0.17 ± 0.01; Max ΔF/F0 (TAS1R2/TAS1R3; RebM in the presence of mogroside V 0.03 µM): 0.16 ± 0.01; Max ΔF/F0 (TAS1R2/TAS1R3; RebM in the presence of mogroside V 1 µM): 0.18 ± 0.01; Max ΔF/F0 (TAS1R2/TAS1R3; RebM in the presence of mogroside V 3 µM): 0.17 ± 0.01; Max ΔF/F0 (TAS1R2/TAS1R3; RebM in the presence of mogroside V 5 µM): 0.12 ± 0.01; Max ΔF/F0 (TAS1R2/TAS1R3; RebM in the presence of mogroside V 10 µM): 0.12 ± 0.01
O=C(CO)[C@H](O)[C@H](O)[C@H](O)CO [D-allulose]	+	−	−	0.50 ± 0.12		concentrations at which TAS2R30 was activated (TAS2R30): > 300 mM; activation of the sweet taste receptor by the compound alone (TAS1R2/TAS1R3; 3 to 30 mM): did not activate the sweet taste receptor
C[C@H](CC[C@@H](O[C@@H]1O[C@H](CO[C@@H]2O[C@H](CO)[C@@H](O)[C@H](O)[C@H]2O)[C@@H](O)[C@H](O)[C@H]1O[C@@H]1O[C@H](CO)[C@@H](O)[C@H](O)[C@H]1O)C(C)(C)O)[C@H]1CC[C@@]2(C)[C@@H]3CC=C4[C@@H](CC[C@H](O[C@@H]5O[C@H](CO[C@@H]6O[C@H](CO)[C@@H](O)[C@H](O)[C@H]6O)[C@@H](O)[C@H](O)[C@H]5O)C4(C)C)[C@]3(C)[C@H](O)C[C@]12C [Mogroside V, mogroside V]	−	−	−	0.14 ± 0.01	23 ± 2	concentration of saturation of the sweet taste receptor (TAS1R2/TAS1R3): ~500 µM; decrease in the EC50 values (TAS1R2/TAS1R3; in the presence of thaumatin 0.3 to 10 µM): 3 fold; decrease in the EC50 value (TAS1R2/TAS1R3; mogroside V in the presence of 10 µM thaumatin): 4 fold; EC50 (TAS1R2/TAS1R3; [5]): 29 ± 4 µM; Max ΔF/F0 (TAS1R2/TAS1R3; [5]): 0.14 ± 0.01; Max ΔF/F0 (TAS1R2/TAS1R3; mogroside V in the presence of thaumatin 0.03 µM): 0.19 ± 0.01; Max ΔF/F0 (TAS1R2/TAS1R3; mogroside V in the presence of thaumatin 1 µM): 0.18 ± 0.04; Max ΔF/F0 (TAS1R2/TAS1R3; mogroside V in the presence of thaumatin 3 µM): 0.18 ± 0.01; Max ΔF/F0 (TAS1R2/TAS1R3; mogroside V in the presence of thaumatin 10 µM): 0.17 ± 0.01
OC[C@@H](O)[C@@H](O)CO [Erythritol, erythritol]	−	−	−	0.06 ± 0.01		EC50 (TAS1R2/TAS1R3): 56000 ± 10000 µM
